Source: patent US9394285B2 (Pfizer Inc., priority 2013, dated 2016)

Target: human AMPK (full-length γ1, β1 and α1 subunits) (Homo sapiens (Human), UniProt Q13131+Q9Y478)
Assay: AMPK in vitro biochemical assay (33P-based, SAMS peptide, PP2A dephosphorylation)
Details: for EC50: activation of phosphorylated AMPK, 33P-ATP, SAMS peptide, PP2A treatment, 4-parameter fit; for Emax / Maximum: counts as % of positive control wells (enzyme, allosteric activator or AMP, PP2A and substrate); for Emax: read-out: Maximum
Outline: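 Phosphorylated full-length α1β1γ1 AMPK (E. coli-expressed, His-purified, gel-filtered) preincubated 15 min RT with compound in HEPES pH 7.5, 10 mM MgCl2 buffer, then PP2A added to dephosphorylate pThr172.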

Chain of human AMPK (full-length γ1, β1 and α1 subunits) (Q13131 whole entry): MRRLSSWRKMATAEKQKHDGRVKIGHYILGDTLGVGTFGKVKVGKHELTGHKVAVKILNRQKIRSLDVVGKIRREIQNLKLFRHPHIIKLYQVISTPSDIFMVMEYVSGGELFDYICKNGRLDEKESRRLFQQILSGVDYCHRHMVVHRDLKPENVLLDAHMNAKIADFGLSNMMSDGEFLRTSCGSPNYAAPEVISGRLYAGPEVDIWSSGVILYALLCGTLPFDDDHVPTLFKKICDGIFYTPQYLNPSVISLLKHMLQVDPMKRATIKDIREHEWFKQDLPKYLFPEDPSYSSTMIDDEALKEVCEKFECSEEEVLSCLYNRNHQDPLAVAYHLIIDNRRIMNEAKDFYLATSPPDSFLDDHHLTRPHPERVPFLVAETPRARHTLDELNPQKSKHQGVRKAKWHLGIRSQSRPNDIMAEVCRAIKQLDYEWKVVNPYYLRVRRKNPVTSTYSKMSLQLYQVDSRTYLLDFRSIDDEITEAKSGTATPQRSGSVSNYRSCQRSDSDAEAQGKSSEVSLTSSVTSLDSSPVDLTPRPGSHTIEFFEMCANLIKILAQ
Chain of human AMPK (full-length γ1, β1 and α1 subunits) (Q9Y478 whole entry): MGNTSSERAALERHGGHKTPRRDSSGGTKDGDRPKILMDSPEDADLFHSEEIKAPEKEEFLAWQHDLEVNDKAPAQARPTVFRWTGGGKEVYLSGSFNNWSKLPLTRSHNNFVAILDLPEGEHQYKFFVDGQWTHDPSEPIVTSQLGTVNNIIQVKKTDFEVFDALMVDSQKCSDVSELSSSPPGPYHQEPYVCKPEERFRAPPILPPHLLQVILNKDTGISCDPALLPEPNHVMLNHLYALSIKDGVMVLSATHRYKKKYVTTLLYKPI
Chain of human AMPK (full-length γ1, β1 and α1 subunits) (P54619 whole entry partner): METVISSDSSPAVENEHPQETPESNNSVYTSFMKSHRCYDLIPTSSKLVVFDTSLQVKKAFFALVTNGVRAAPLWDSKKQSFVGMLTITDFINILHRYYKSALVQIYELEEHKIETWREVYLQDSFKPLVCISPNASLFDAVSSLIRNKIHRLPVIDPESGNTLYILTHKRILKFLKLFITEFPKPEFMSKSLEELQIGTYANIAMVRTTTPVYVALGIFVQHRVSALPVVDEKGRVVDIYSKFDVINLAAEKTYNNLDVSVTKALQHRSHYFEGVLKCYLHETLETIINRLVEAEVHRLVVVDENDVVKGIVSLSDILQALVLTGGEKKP

SMILES	EC50 [nM]	Emax [%]	Maximum [%]
COc1cc(-c2cc3c(C(=O)O)c[nH]c3cc2Cl)ccc1OC[C@@H]1CCCN1 [Example 55, (S)-6-Chloro-5-(3-methoxy-4-(pyrrolidin-2-ylmethoxy)phenyl)-1H-indole-3-carboxylic acid]	209	87	
O=C(O)c1c[nH]c2cc(Cl)c(-c3ccc(C4CCOCC4)cc3)cc12 [Example 136, 6-Chloro-5-[4-(tetrahydro-2H-pyran-4-yl)phenyl]-1H-indole-3-carboxylic acid]	39.3	100	
CS(=O)(=O)N1CCCC1c1ccc(-c2cc3c(C(=O)O)c[nH]c3cc2Cl)cc1 (centres unmarked) [Example 84, 6-chloro-5-{4-[1-(methylsulfonyl)pyrrolidin-2-yl]phenyl}-1H-indole-3-carboxylic acid]	344	72	
O=C(O)c1c[nH]c2cc(Cl)c(-c3ccc(C4(O)CCC4)c(F)c3)cc12 [Example 42, 6-chloro-5-[3-fluoro-4-(1-hydroxycyclobutyl)phenyl]-1H-indole-3-carboxylic acid]	21.8	65	
O=C(O)c1c[nH]c2cc(F)c(-c3ccc(OCCCO)cc3)c(F)c12 [Example 28, 4,6-difluoro-5-[4-(3-hydroxypropoxy)phenyl]-1H-indole-3-carboxylic acid]	1080	98	
COc1cc(-c2cc3c(C(=O)O)c[nH]c3cc2Cl)ccc1C1(O)CCC1 [Example 61, 6-chloro-5-[4-(1-hydroxycyclobutyl)-3-methoxyphenyl]-1H-indole-3-carboxylic acid]	2.3	57	
COc1cc(-c2cc3c(C(=O)O)c[nH]c3cc2F)ccc1C1(O)CCC1 [Example 25, 6-fluoro-5-[4-(1-hydroxycyclobutyl)-3-methoxyphenyl]-1H-indole-3-carboxylic acid]	111	78	
CNC(=O)COc1ccc(-c2cc3c(C(=O)O)c[nH]c3cc2Cl)cc1 [Example 82, 6-chloro-5-{4-[2-(methylamino)-2-oxoethoxy]phenyl}-1H-indole-3-carboxylic acid]	216	86	
COc1cc(-c2cc3c(C(=O)O)n[nH]c3cc2Cl)ccc1C1(O)CCC1 [Example 131, 6-Chloro-5-[4-(1-hydroxycyclobutyl)-3-methoxyphenyl]-1H-indazole-3-carboxylic acid]	17.9	95	
Cc1cc2[nH]cc(C(=O)O)c2cc1-c1ccc(C2(O)CCC2)cc1 [Example 35, 5-[4-(1-hydroxycyclobutyl)phenyl]-6-methyl-1H-indole-3-carboxylic acid]	74.2	72	
O=C(O)c1c[nH]c2cc(Cl)c(-c3ccc(C4CCNC4)cc3)cc12 (centres unmarked) [Example 17, 6-chloro-5-[4-(pyrrolidin-3-yl)phenyl]-1H-indole-3-carboxylic acid]	126	107	
O=C(O)c1c[nH]c2cc(Cl)c(-c3ccc(C4(C(=O)O)CCC4)cc3)cc12 [Example 78, 5-[4-(1-carboxycyclobutyl)phenyl]-6-chloro-1H-indole-3-carboxylic acid]	2000	68	
O=C(O)c1n[nH]c2cc(Cl)c(-c3ccc(OCCO)cc3)cc12 [Example 119, 6-Chloro-5-(4-(2-hydroxyethoxy)phenyl)-1H-indazole-3-carboxylic acid]	44.8	97	
COc1nc(N(C)CCO)ccc1-c1cc2c(C(=O)O)c[nH]c2cc1Cl [Example 186, 6-chloro-5-{6-[(2-hydroxyethyl)(methyl)amino]-2-methoxypyridin-3-yl}-1H-indole-3-carboxylic acid]	84.5	114	
CC(=O)N1CCC(c2ccc(-c3cc4c(C(=O)O)n[nH]c4cc3Cl)cc2)CC1 [Example 117, 5-(4-(1-Acetylpiperidin-4-yl)phenyl)-6-chloro-1H-indazole-3-carboxylic acid]	90.2	107	
CC(C)(CO)c1ccc(-c2cc3c(C(=O)O)n[nH]c3cc2Cl)cc1 [Example 115, 6-Chloro-5-(4-(1-hydroxy-2-methylpropan-2-yl)phenyl)-1H-indazole-3-carboxylic acid]	27	95	
O=C(O)c1c[nH]c2cc(F)c(-c3ccc(C4(CO)CCC4)cc3)c(F)c12 [Example 141, 4,6-difluoro-5-(4-(1-(hydroxymethyl)cyclobutyl)phenyl)-1H-indole-3-carboxylic acid]	9.3		119
COc1ccc(-c2cc3c(C(=O)O)c[nH]c3cc2F)cc1 [Example 34, 6-Fluoro-5-(4-methoxy-phenyl)-1H-indole-3-carboxylic acid]	315	122	
CC(C)(O)c1ccc(-c2cc3c(C(=O)O)n[nH]c3cc2Cl)cc1 [Example 102, 6-Chloro-5-(4-(2-hydroxypropan-2-yl)phenyl)-1H-indazole-3-carboxylic acid]	33.7	79	

SMILES	EC50 [nM]	Emax [%]	Maximum [%]
O=C(O)c1c[nH]c2cc(Cl)c(-c3cnc(N4CCOCC4)nc3)cc12 [Example 76, 6-chloro-5-[2-(morpholin-4-yl)pyrimidin-5-yl]-1H-indole-3-carboxylic acid]	271	104	
O=C(O)c1c[nH]c2cc(Cl)c(-c3ccc(OCCCC4COC4)cc3)cc12 [Example 157, 6-chloro-5-(4-(3-(oxetan-3-yl)propoxy)phenyl)-1H-indole-3-carboxylic acid]	50.1	96.1	
N#Cc1cc(C2(O)CCC2)ccc1-c1cc2c(C(=O)O)c[nH]c2cc1Cl [Example 69, 6-chloro-5-[2-cyano-4-(1-hydroxycyclobutyl)phenyl]-1H-indole-3-carboxylic acid]	264	74	
O=C(O)c1c[nH]c2cc(Cl)c(-c3ccc(CCO)cc3)cc12 [Example 71, 6-chloro-5-[4-(2-hydroxyethyl)phenyl]-1H-indole-3-carboxylic acid]	14	75	
O=C(O)c1c[nH]c2cc(F)c(-c3ccc(OCCC4CCOC4)cc3)c(F)c12 (centres unmarked) [Example 190, 4,6-difluoro-5-{4-[2-(tetrahydrofuran-3-yl)ethoxy]phenyl}-1H-indole-3-carboxylic acid]	109	108	
COc1ccc(-c2cc3c(C(=O)NS(=O)(=O)c4ccccc4)n[nH]c3cc2Cl)cc1 [Example 118, 6-Chloro-5-(4-methoxyphenyl)-N-(phenylsulfonyl)-1H-indazole-3-carboxamide]	169	125	
COc1nc(N2CC[C@H](O)C2)ccc1-c1cc2c(C(=O)O)c[nH]c2cc1Cl [Example 184, 6-chloro-5-{6-[(3S)-3-hydroxypyrrolidin-1-yl]-2-methoxypyridin-3-yl}-1H-indole-3-carboxylic acid]	6.2	84	
O=C(O)c1c[nH]c2cc(Cl)c(-c3ccc(C4(CO)CCC4)cc3F)cc12 [Example 164, 6-chloro-5-{2-fluoro-4-[1-(hydroxymethyl)cyclobutyl]phenyl}-1H-indole-3-carboxylic acid]	17.5	142	
O=C(O)c1c[nH]c2cc(F)c(-c3ccc(CO)cc3)cc12 [Example 7, 6-fluoro-5-[4-(hydroxymethyl)phenyl]-1H-indole-3-carboxylic acid]	671	78	
O=C(O)c1c[nH]c2cc(Cl)c(-c3ccc(C4CCCO4)cc3)cc12 (single isomer, unassigned) [Example 155, 6-chloro-5-[4-(tetrahydrofuran-2-yl)phenyl]-1H-indole-3-carboxylic acid]	47.8		126.9
O=C(O)c1c[nH]c2cc(F)c(-c3ccc(-c4ccccc4O)cc3)cc12 [Example 135, 6-fluoro-5-(2′-hydroxybiphenyl-4-yl)-1H-indole-3-carboxylic acid]	6.5	82	
COC(=O)N1CCC(c2ccc(-c3cc4c(C(=O)O)c[nH]c4cc3Cl)cc2)C1 (single isomer, unassigned) [Example 14B, 6-chloro-5-{4-[1-(methoxycarbonyl)pyrrolidin-3-yl]phenyl}-1H-indole-3-carboxylic acid]	118		91
O=C(O)c1n[nH]c2cc(Cl)c(-c3ccc(N4CCOCC4)cc3)cc12 [Example 128, 6-Chloro-5-(4-morpholinophenyl)-1H-indazole-3-carboxylic acid]	19.8	70	
CC(C)c1ccc(-c2cc3c(C(=O)O)c[nH]c3cc2Cl)cc1 [Example 162, 6-chloro-5-[4-(propan-2-yl)phenyl]-1H-indole-3-carboxylic acid]	192	123	
O=C(O)c1c[nH]c2cc(Cl)c(-c3ccc(C4CNC4)cc3)cc12 [Example 91, 5-[4-(azetidin-3-yl)phenyl]-6-chloro-1H-indole-3-carboxylic acid]	695	101	
O=C(O)c1c[nH]c2cc(Cl)c(-c3ccc(OCCC4COC4)cc3)cc12 [Example 156, 6-chloro-5-(4-(2-(oxetan-3-yl)ethoxy)phenyl)-1H-indole-3-carboxylic acid]	31.9	98.9	
O=S(=O)(O)c1c[nH]c2cc(Cl)c(-c3ccc(-c4ccccc4O)cc3)cc12 [Example 133, 6-Chloro-5-(2′-hydroxy-[1,1′-biphenyl]-4-yl)-1H-indole-3-sulfonic acid]	> 50000		
O=C(O)c1n[nH]c2cc(Cl)c(-c3ccc([C@H]4C[C@H](O)C4)cc3)cc12 [Example 126, 6-Chloro-5-(4-((1R,3R)-3-hydroxycyclobutyl)phenyl)-1H-indazole-3-carboxylic acid]	26.8		
O=C(O)c1c[nH]c2cc(Cl)c(-c3ccccc3)cc12 [Example 3, 6-Chloro-5-phenyl-1H-indole-3-carboxylic acid]	459	82	
